Measured values from US20070213402A1, “Compounds which interact with the thyroid hormone receptor for the treatment of fibrotic disease” (priority 1998, published 2007).

Key:
NFκB = assay: Experiment 3: NFκB-driven 3-EnhTK-Luc reporter in CV1 cells with GR1; format: cell-based, African Green Monkey; details: for % Control: Blank = 100
From the text: (§1) Two plasmid constructs were introduced by standard calcium phosphate precipitation of DNA followed by glycerol shock (Ausubel F M, Brent R, Kingston D D, Moore J G et al Current protocols in molecular biology 1994 Greene Publishing Associates/Wiley-Interscience, New York, N.Y.) using a transformed African Green Monkey kidney cell line (CV1) (Schneikert J, Peterziel H, Defossez P-A, Klocker H, de Launoit Y and Cato A C B Androgen receptor-Ets protein interaction is a novel mechanism for steroid hormone-mediated down-modulation of matrix metalloproteinase expression, Journal of Biological Chemistry. Vol 271(39) (pp 23907-23913), 1996).
This experiment was intended to show the effect of compounds I on a mediator of the immune response, nuclear factor—κB (NF-κB).
The following two plasmids were included into CV1 cells described above— • (a) GR1 as described above at 2 ug per 5×10^5 cells, and • (b) a plasmid designated 3-EnhTK-Luc (at 0.5 ug per 5×10^5 cells) which contains a transcription site that is activated by NFκB.
The blank represented the inclusion of these two plasmids alone; the relatively high value was caused by (i) the high level of serum in the culture, and (ii) the associated stress that the cells underwent during the […]—both of which upregulate NFκB. There was also a related relatively low activation of TNF (at 4 ng/ml) above a serum containing blank in the experiment. TNF was tumour necrosis factor alpha.

glucocorticoid receptor = biological target: T1, glucocorticoid receptor (Homo sapiens, UniProt P04150); assay: Experiment 2: PGL3MMTV-luciferase transactivation in CV1 cells with glucocorticoid receptor (GR1); format: cell-based; details: for % control (GR1): Blank = 100
T1 construct: expressed in transfected cells; host or cells: CV1 (transformed African Green Monkey kidney cell line)
T1 sequence (P04150 1-777): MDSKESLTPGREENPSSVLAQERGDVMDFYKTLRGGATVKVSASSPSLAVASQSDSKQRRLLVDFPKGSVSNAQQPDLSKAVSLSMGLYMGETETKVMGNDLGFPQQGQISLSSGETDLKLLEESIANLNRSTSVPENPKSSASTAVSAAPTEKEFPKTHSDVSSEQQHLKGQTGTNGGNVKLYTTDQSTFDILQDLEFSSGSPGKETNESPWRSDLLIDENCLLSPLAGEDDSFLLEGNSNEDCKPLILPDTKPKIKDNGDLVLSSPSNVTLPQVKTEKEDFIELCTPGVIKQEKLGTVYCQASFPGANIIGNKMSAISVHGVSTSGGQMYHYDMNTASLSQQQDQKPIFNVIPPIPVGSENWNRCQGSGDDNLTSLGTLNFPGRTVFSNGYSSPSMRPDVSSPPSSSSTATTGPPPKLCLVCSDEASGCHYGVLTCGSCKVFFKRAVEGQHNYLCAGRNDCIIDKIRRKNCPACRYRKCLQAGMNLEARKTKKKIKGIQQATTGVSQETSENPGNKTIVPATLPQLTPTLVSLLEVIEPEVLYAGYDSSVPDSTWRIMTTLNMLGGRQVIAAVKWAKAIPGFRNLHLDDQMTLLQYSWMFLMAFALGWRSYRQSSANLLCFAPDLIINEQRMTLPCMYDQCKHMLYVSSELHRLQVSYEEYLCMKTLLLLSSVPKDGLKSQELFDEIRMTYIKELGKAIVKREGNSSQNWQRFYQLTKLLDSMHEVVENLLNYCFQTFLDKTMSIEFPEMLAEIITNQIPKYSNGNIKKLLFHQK
From the text: as §1
This experiment was intended to investigate the activation of androgen and corticosteroid receptors by compound I.
CPII was compound II above, clobuzarit, which was used at 10^−7M.

collagenase I promoter = assay: Experiment 1: collagenase I promoter (-73/+63)-luciferase in CV1 cells transfected with pSG5ARF (androgen receptor); format: cell-based, African Green Monkey; details: for % control (AR): Blank = 100
From the text: as §1
Accordingly, the following two plasmids were included into CV1 cells described above — • (a) Either of GR1 or pSG5ARF containing glucocorticoid or androgen receptor (AR) respectively, both at 2 ug per 5×10^5 cells, driven by the Rous sarcoma virus promoter, and • (b) a plasmid containing the −73/+63 portion of the collagenase I promoter linked to luciferase gene at 8 ug per 5×10^5 cells.
CPII was compound II above, clobuzarit.

pro-MMP-1 = assay: Experiment 5: immunoblot of pro-MMP-1 in rheumatoid fibroblasts; format: cell-based, human; details: 36 hours, 10 ng/ml TPA plus 5×10^-7M substance, compared to TPA alone (lane 5)
Method: (§2) Rheumatoid fibroblasts were cultured from synovium obtained from the knee joint of a patient with rheumatoid arthritis. Cells were cultured in monolayer with DMEM tissue culture medium (Gibco) with the inclusion of 5% v/v charcoal stripped serum in 75 cm^2 flasks. The cells were treated for 36 hours with the addition of 10 ng/ml TPA (phorbol ester) plus 5×10^−7M thyroid hormone, Compound II or Compound III. TPA and drugs were added at time zero and at 30 hours, the TPA addition ensured phosphorylation of c-jun.
(§3) After 36 hours, cells were lysed in phosphate buffered saline (PBS) containing protease inhibitors and 0.1% Triton-X-100, and then boiled for 5 minutes in non-reducing gel loading buffer. Samples of cell lysate corresponding to equal cell number were loaded onto a 12.5% SDS polyacrylamide gel, and electrophoresis using a Bio-Rad™, (Bio-Rad Laboratories, California USA) Mini Protean II cell was performed at approximately 100V for one hour.
(§4) Transfer of proteins to nitrocellulose membrane was performed using a Bio-Rad Mini Trans-Blot transfer cell.
(§5) Immunoblotting was performed using polyclonal rabbit anti-human phosphorylation specific (set 73) c-jun (cat. No 06659, Upstate Biotechnology), or MMP-1 (cat. No. RDI-MMP1Habr, Research Diagnostics) antibodies diluted 1:1000 in Tris buffered saline+3% fat free milk powder. […]

c-jun = assay: Experiment 5: immunoblot of phosphorylated (serine 73) c-jun in rheumatoid fibroblasts; format: cell-based, human; details: 36 hours, 10 ng/ml TPA plus 5×10^-7M substance, compared to TPA alone (lane 1)
Method: as §2, §3, §4, §5

[1] = substance added alone, TNF 4 ng/ml
[2] = substance added with TNF 4 ng/ml
[3] = CPII 10^-7M together with Dex 10^-7M
[4] = substance added with TPA 75 ng/ml, DHT 10^-7M

activation of glucocorticoid receptor-driven transcription, in words (glucocorticoid receptor; 10^-7M, compared with Dex): negligible activity | Raw counts (GR1) (glucocorticoid receptor; [3]): 748249 counts | % control (GR1) (glucocorticoid receptor; [3]): 20965% | Raw counts (GR1) (glucocorticoid receptor; substance alone at 10^-7M): 3272 counts | % control (GR1) (glucocorticoid receptor; substance alone at 10^-7M): 92%
SMILES: CC(C)(OCc1ccc(-c2ccc(Cl)cc2)cc1)C(=O)O [Compound II, 1-[4-(4-chlorophenyl)benzyloxy]-1-methylpropionic acid]
Raw Counts (NFκB; [1]): 75812 counts | % Control (NFκB; [1]): 127% | Raw Counts (NFκB; [2]): 135886 counts | % Control (NFκB; [2]): 228% | upregulation of transcriptional activity by NFκB, in words (NFκB; versus background value): not able to upregulate transcriptional activity by NFκB | inhibitory effect on NFκB transcription, in words (NFκB; with TNF): lack of inhibitory effect | % control (AR) (collagenase I promoter; substance added alone): 51% | Raw counts (AR) (collagenase I promoter; substance added alone, TPA 75 ng/ml): 1374 counts | Raw counts (AR) (collagenase I promoter; [4]): 5986 counts | % control (AR) (collagenase I promoter; [4]): 224% | collagenase I activation, in words (AR) (collagenase I promoter; TPA-stimulated, androgen receptor): able to down regulate collagenase I activation | amount of pro-MMP-1, band intensity (pro-MMP-1): lower intensity | amount of phosphorylation of c-jun (serine 73), band intensity (c-jun): lower intensity
